Earlier results, collected in PubChem BioAssay AID1259409 (Chemical Carcinogenesis Research Information System (CCRIS), 2018).

Tested on: rodent chemically induced tumor inhibition, incidence and multiplicity
Assay: CCRIS tumor inhibitor studies
Settings: Route [Inhibitor]: ORAL, Species: HAMSTER, Promoter: NONE USED

CC1=C(/C=C/C(C)=C/C=C/C(C)=C\C(=O)O)C(C)(C)CCC1
tumour outcome (control, treated, inhibition, significance) (Carcinogen: N-NITROBIS(2-OXOPROPYL)AMINE, 60559-38-4, Dose [Inhibitor]: 0.4 OR 0.8 MMOL/KG DIET DAILY STARTING 1 WK AFTER CARCINOGEN TREATMENT AND CONTINUING THROUGH THE END OF THE STUDY (STUD, Strain/Sex: SYRIAN/FEMALE, Target Tissue: Type of Lesion: PANCREAS: DUCTULAR ADENOMA, Dose [Carcinogen]: 40 MG/KG BW ONCE): 12/20 (60%), 7/14 (50%), 17%, not significant | tumour outcome (control, treated, inhibition, significance) (Carcinogen: N-NITROBIS(2-OXOPROPYL)AMINE, 60559-38-4, Dose [Inhibitor]: 0.4 OR 0.8 MMOL/KG DIET DAILY STARTING 1 WK AFTER CARCINOGEN TREATMENT AND CONTINUING THROUGH THE END OF THE STUDY (STUD, Strain/Sex: SYRIAN/FEMALE, Target Tissue: Type of Lesion: PANCREAS: DUCTULAR CARCINOMA, Dose [Carcinogen]: 10 MG/KG BW ONCE): 6/23 (27%), 3/23 (13%), 52%, not significant | tumour outcome (control, treated, inhibition, significance) (Carcinogen: N-NITROBIS(2-OXOPROPYL)AMINE, 60559-38-4, Dose [Inhibitor]: 0.4 OR 0.8 MMOL/KG DIET DAILY STARTING 1 WK AFTER CARCINOGEN TREATMENT AND CONTINUING THROUGH THE END OF THE STUDY (STUD, Strain/Sex: SYRIAN/FEMALE, Target Tissue: Type of Lesion: PANCREAS: DUCTULAR CARCINOMA, Dose [Carcinogen]: 40 MG/KG BW ONCE): 6/20 (30%), 9/14 (64%), -113%, not significant | tumour outcome (control, treated, inhibition, significance) (Carcinogen: N-NITROBIS(2-OXOPROPYL)AMINE, 60559-38-4, Dose [Inhibitor]: 0.4 OR 0.8 MMOL/KG DIET DAILY STARTING 1 WK AFTER CARCINOGEN TREATMENT AND CONTINUING THROUGH THE END OF THE STUDY (STUD, Strain/Sex: SYRIAN/MALE, Target Tissue: Type of Lesion: PANCREAS: DUCTULAR CARCINOMA, Dose [Carcinogen]: 40 MG/KG BW ONCE): 5/24 (21%), 9/24 (38%), -81%, not significant | tumour outcome (control, treated, inhibition, significance) (Carcinogen: N-NITROBIS(2-OXOPROPYL)AMINE, 60559-38-4, Dose [Inhibitor]: 0.4 OR 0.8 MMOL/KG/D IN DIET STARTING 1 WK AFTER CARCINOGEN TREATMENT AND CONTINUING THROUGH THE END OF THE STUDY (STUDY, Strain/Sex: SYRIAN/MALE, Target Tissue: Type of Lesion: LIVER: BENIGN TUMOR, Dose [Carcinogen]: 40 MG/KG BW ONCE): 21%, 48%, -129%, not significant | tumour outcome (control, treated, inhibition, significance) (Carcinogen: N-NITROBIS(2-OXOPROPYL)AMINE, 60559-38-4, Dose [Inhibitor]: 0.4 OR 0.8 MMOL/KG/D IN DIET STARTING 1 WK AFTER CARCINOGEN TREATMENT AND CONTINUING THROUGH THE END OF THE STUDY (STUDY, Strain/Sex: SYRIAN/MALE, Target Tissue: Type of Lesion: PANCREAS: DUCTULAR ADENOMA, Dose [Carcinogen]: 10 MG/KG BW ONCE): 3/22 (14%), 20/36 (56%), -300%, p<0.05 | tumour outcome (control, treated, inhibition, significance) (Carcinogen: N-NITROBIS(2-OXOPROPYL)AMINE, 60559-38-4, Dose [Inhibitor]: 0.4 OR 0.8 MMOL/KG/D IN DIET STARTING 1 WK AFTER CARCINOGEN TREATMENT AND CONTINUING THROUGH THE END OF THE STUDY (STUDY, Strain/Sex: SYRIAN/MALE, Target Tissue: Type of Lesion: PANCREAS: DUCTULAR CARCINOMA, Dose [Carcinogen]: 10 MG/KG BW ONCE): 4/22 (18%), 8/36 (22%), -22%, not significant | tumour outcome (control, treated, inhibition, significance) (Carcinogen: N-NITROBIS(2-OXOPROPYL)AMINE, 60559-38-4, Dose [Inhibitor]: 0.5 OR 1.0 MMOL/KG/D IN DIET STARTING 1 WK AFTER CARCINOGEN TREATMENT AND CONTINUING THROUGH THE END OF THE STUDY (STUDY, Strain/Sex: SYRIAN/FEMALE, Target Tissue: Type of Lesion: PANCREAS: DUCTULAR ADENOMA, Dose [Carcinogen]: 10 MG/KG BW ONCE): 5/23 (22%), 9/23 (39%), -77%, not significant | tumour outcome (control, treated, inhibition, significance) (Carcinogen: N-NITROBIS(2-OXOPROPYL)AMINE, 60559-38-4, Dose [Inhibitor]: 0.5 OR 1.0 MMOL/KG/D IN DIET STARTING 1 WK AFTER CARCINOGEN TREATMENT AND CONTINUING THROUGH THE END OF THE STUDY (STUDY, Strain/Sex: SYRIAN/FEMALE, Target Tissue: Type of Lesion: PANCREAS: DUCTULAR CARCINOMA, Dose [Carcinogen]: 10 MG/KG BW ONCE): 6/23 (27%), 3/23 (13%), 52%, not significant | tumour outcome (control, treated, inhibition, significance) (Carcinogen: N-NITROSOBIS(2-OXYPROPYL)AMINE, 60599-38-4, Dose [Inhibitor]: 0.05, 0.1 OR 0.2 MILLIMOLAR/KG DIET FOR 32 WK STARTING 1 WK AFTER THE CARCINOGEN DOSE (STUDY DURATION: 33 WK), Strain/Sex: SYRIAN/FEMALE, Target Tissue: Type of Lesion: LUNG: ADENOMA, Dose [Carcinogen]: 40 MG/KG ONCE): 3/10 (30%), 6/26 (23%), 23%, not significant | tumour outcome (control, treated, inhibition, significance) (Carcinogen: N-NITROSOBIS(2-OXYPROPYL)AMINE, 60599-38-4, Dose [Inhibitor]: 0.05, 0.1 OR 0.2 MILLIMOLAR/KG DIET FOR 32 WK STARTING 1 WK AFTER THE CARCINOGEN DOSE (STUDY DURATION: 33 WK), Strain/Sex: SYRIAN/MALE, Target Tissue: Type of Lesion: COMMON DUCT: ADENOMA, Dose [Carcinogen]: 40 MG/KG ONCE): 4/12 (33%), 17/29 (59%), -78%, not significant | tumour outcome (control, treated, inhibition, significance) (Carcinogen: N-NITROSOBIS(2-OXYPROPYL)AMINE, 60599-38-4, Dose [Inhibitor]: 0.05, 0.1 OR 0.2 MILLIMOLAR/KG DIET FOR 32 WK STARTING 1 WK AFTER THE CARCINOGEN DOSE (STUDY DURATION: 33 WK), Strain/Sex: SYRIAN/MALE, Target Tissue: Type of Lesion: GALL BLADDER: ADENOMA, Dose [Carcinogen]: 40 MG/KG ONCE): 3/12 (25%), 12/29 (41%), -64%, not significant | tumour outcome (control, treated, inhibition, significance) (Carcinogen: N-NITROSOBIS(2-OXYPROPYL)AMINE, 60599-38-4, Dose [Inhibitor]: 0.05, 0.1 OR 0.2 MILLIMOLAR/KG DIET FOR 32 WK STARTING 1 WK AFTER THE CARCINOGEN DOSE (STUDY DURATION: 33 WK), Strain/Sex: SYRIAN/MALE, Target Tissue: Type of Lesion: LIVER: ADENOMA, Dose [Carcinogen]: 40 MG/KG ONCE): 50%, 41%, 18%, not significant | tumour outcome (control, treated, inhibition, significance) (Carcinogen: N-NITROSOBIS(2-OXYPROPYL)AMINE, 60599-38-4, Dose [Inhibitor]: 0.05, 0.1 OR 0.2 MILLIMOLAR/KG DIET FOR 32 WK STARTING 1 WK AFTER THE CARCINOGEN DOSE (STUDY DURATION: 33 WK), Strain/Sex: SYRIAN/MALE, Target Tissue: Type of Lesion: LUNG: ADENOMA, Dose [Carcinogen]: 40 MG/KG ONCE): 1/12 (8%), 2/29 (3%), 63%, not significant | tumour outcome (control, treated, inhibition, significance) (Carcinogen: N-NITROSOBIS(2-OXYPROPYL)AMINE, 60599-38-4, Dose [Inhibitor]: 0.05, 0.1 OR 0.2 MILLIMOLAR/KG DIET FOR 32 WK STARTING 1 WK AFTER THE CARCINOGENDOSE (STUDY DURATION: 33 WK), Strain/Sex: SYRIAN/FEMALE, Target Tissue: Type of Lesion: COMMON DUCT: ADENOMA, Dose [Carcinogen]: 40 MG/KG ONCE): 4/10 (40%), 11/26 (42%), -5%, not significant | tumour outcome (control, treated, inhibition, significance) (Carcinogen: N-NITROSOBIS(2-OXYPROPYL)AMINE, 60599-38-4, Dose [Inhibitor]: 0.05, 0.1 OR 0.2 MILLIMOLAR/KG DIET FOR 32 WK STARTING 1 WK AFTER THE CARCINOGENDOSE (STUDY DURATION: 33 WK), Strain/Sex: SYRIAN/FEMALE, Target Tissue: Type of Lesion: GALL BLADDER: ADENOMA, Dose [Carcinogen]: 40 MG/KG ONCE): 6/10 (60%), 2/26 (18%), 70%, not significant | tumour outcome (control, treated, inhibition, significance) (Carcinogen: N-NITROSOBIS(2-OXYPROPYL)AMINE, 60599-38-4, Dose [Inhibitor]: 0.05, 0.1 OR 0.2 MILLIMOLAR/KG DIET FOR 32 WK STARTING 1 WK AFTER THE CARCINOGENDOSE (STUDY DURATION: 33 WK), Strain/Sex: SYRIAN/FEMALE, Target Tissue: Type of Lesion: LIVER : ADENOMA, Dose [Carcinogen]: 40 MG/KG ONCE): 6/10 (60%), 10/26 (39%), 35%, not significant | tumour outcome (control, treated, inhibition, significance) (Carcinogen: N-NITROSOBIS(2-OXYPROPYL)AMINE, 60599-38-4, Dose [Inhibitor]: 0.05, 0.1 OR 0.2 MILLIMOLAR/KG DIET FOR 32 WK STARTING 1 WK AFTER THE CARCINOGENDOSE (STUDY DURATION: 33 WK), Strain/Sex: SYRIAN/FEMALE, Target Tissue: Type of Lesion: PANCREAS: ADENOMA, Dose [Carcinogen]: 40 MG/KG ONCE): 10/10 (100%), 26/26 (100%), 0%, not significant | tumour outcome (control, treated, inhibition, significance) (Carcinogen: N-NITROSOBIS(2-OXYPROPYL)AMINE, 60599-38-4, Dose [Inhibitor]: 0.05, 0.1 OR 0.2 MILLIMOLAR/KG DIET FOR 32 WK STARTING 1 WK AFTER THE CARCINOGENDOSE (STUDY DURATION: 33 WK), Strain/Sex: SYRIAN/FEMALE, Target Tissue: Type of Lesion: PANCREAS: CARCINOMA, Dose [Carcinogen]: 40 MG/KG ONCE): 4/10 (40%), 14/26 (54%), -35%, not significant | tumour outcome (control, treated, inhibition, significance) (Carcinogen: N-NITROSOBIS(2-OXYPROPYL)AMINE, 60599-38-4, Dose [Inhibitor]: 0.05, 0.1 OR 0.2 MILLIMOLAR/KG DIET FOR 32 WK STARTING 1 WK AFTER THE CARCINOGENDOSE (STUDY DURATION: 33 WK), Strain/Sex: SYRIAN/MALE, Target Tissue: Type of Lesion: PANCREAS: ADENOMA, Dose [Carcinogen]: 40 MG/KG ONCE): 12/12 (100%), 29/29 (100%), 0%, not significant | tumour outcome (control, treated, inhibition, significance) (Carcinogen: N-NITROSOBIS(2-OXYPROPYL)AMINE, 60599-38-4, Dose [Inhibitor]: 0.05, 0.1 OR 0.2 MILLIMOLAR/KG DIET FOR 32 WK STARTING 1 WK AFTER THE CARCINOGENDOSE (STUDY DURATION: 33 WK), Strain/Sex: SYRIAN/MALE, Target Tissue: Type of Lesion: PANCREAS: CARCINOMA, Dose [Carcinogen]: 40 MG/KG ONCE): 6/12 (50%), 12/29 (41%), 18%, not significant
